Test results reported in ChEMBL document CHEMBL5303573, “Mapping human microbiome drug metabolism by gut bacteria and their genes” (Nature, 2019).

conditions: parabacteroides johnsonii, 12 h, 2 µM
Description: The drug is tested on Parabacteroides johnsonii strain: DSM18315 for biotransformation. The drug concentrations were measured before and after a 12-h incubation by liquid-chromatography-coupled mass spectrometry (LC–MS)

Row | Structure (SMILES) | Bacterial Biotransformation
1 | c1ccc2[nH]c(-c3cscn3)nc2c1 [THIABENDAZOLE] | Compound NOT metabolized
2 | CCOc1ccccc1OCCN[C@H](C)Cc1ccc(OC)c(S(N)(=O)=O)c1.Cl [TAMSULOSIN HYDROCHLORIDE] | Compound NOT metabolized
3 | C[C@@H](CO)NC(=O)[C@@H]1C=C2c3cccc4[nH]cc(c34)C[C@H]2N(C)C1.O=C(O)/C=C\C(=O)O [ERGONOVINE MALEATE] | Compound metabolized
4 | CN[C@H]1CC[C@@H](c2ccc(Cl)c(Cl)c2)c2ccccc21 [SERTRALINE] | Compound NOT metabolized
5 | COc1cc(C(=O)NCc2ccc(OCCN(C)C)cc2)cc(OC)c1OC [TRIMETHOBENZAMIDE] | Compound NOT metabolized
6 | NC(CO)(CO)CO.O=C(c1ccccc1)c1ccc2n1CCC2C(=O)O (stereo not drawn) [KETOROLAC TROMETHAMINE] | Compound NOT metabolized
7 | CC(CN1c2ccccc2Sc2ccccc21)N(C)C (stereo not drawn) [PROMETHAZINE] | Compound NOT metabolized
8 | CCOc1ccc(NC(C)=O)cc1 [PHENACETIN] | Compound NOT metabolized
9 | Cc1cn([C@H]2C[C@H](N=[N+]=[N-])[C@@H](CO)O2)c(=O)[nH]c1=O [ZIDOVUDINE] | Compound metabolized
10 | O=C1N=C([O-])NC1(c1ccccc1)c1ccccc1.[Na+] [PHENYTOIN SODIUM] | Compound metabolized
11 | CC(O)(CS(=O)(=O)c1ccc(F)cc1)C(=O)Nc1ccc(C#N)c(C(F)(F)F)c1 (stereo not drawn) [BICALUTAMIDE] | Compound NOT metabolized
12 | O=C1CC2(CCCC2)CC(=O)N1CCCCN1CCN(c2ncccn2)CC1 [BUSPIRONE] | Compound NOT metabolized
13 | Cc1ccc(S(=O)(=O)NC(=O)NN2CCCCCC2)cc1 [TOLAZAMIDE] | Compound metabolized

experiment: The drug is tested on Clostridium ramosum strain: DSM1402 for biotransformation. The drug concentrations were measured before and after a 12-h incubation by liquid-chromatography-coupled mass spectrometry (LC–MS); conditions: thomasclavelia ramosa, 2 µM

Row | Structure (SMILES) | Bacterial Biotransformation
14 | c1ccc2[nH]c(-c3cscn3)nc2c1 [THIABENDAZOLE] | Compound NOT metabolized
15 | CCOc1ccccc1OCCN[C@H](C)Cc1ccc(OC)c(S(N)(=O)=O)c1.Cl [TAMSULOSIN HYDROCHLORIDE] | Compound NOT metabolized
16 | C[C@@H](CO)NC(=O)[C@@H]1C=C2c3cccc4[nH]cc(c34)C[C@H]2N(C)C1.O=C(O)/C=C\C(=O)O [ERGONOVINE MALEATE] | Compound NOT metabolized
17 | CN[C@H]1CC[C@@H](c2ccc(Cl)c(Cl)c2)c2ccccc21 [SERTRALINE] | Compound NOT metabolized
18 | NC(CO)(CO)CO.O=C(c1ccccc1)c1ccc2n1CCC2C(=O)O (stereo not drawn) [KETOROLAC TROMETHAMINE] | Compound NOT metabolized
19 | CC(CN1c2ccccc2Sc2ccccc21)N(C)C (stereo not drawn) [PROMETHAZINE] | Compound NOT metabolized
20 | Cc1cn([C@H]2C[C@H](N=[N+]=[N-])[C@@H](CO)O2)c(=O)[nH]c1=O [ZIDOVUDINE] | Compound NOT metabolized
21 | O=C1N=C([O-])NC1(c1ccccc1)c1ccccc1.[Na+] [PHENYTOIN SODIUM] | Compound NOT metabolized
22 | CC(O)(CS(=O)(=O)c1ccc(F)cc1)C(=O)Nc1ccc(C#N)c(C(F)(F)F)c1 (stereo not drawn) [BICALUTAMIDE] | Compound NOT metabolized
23 | O=C1CC2(CCCC2)CC(=O)N1CCCCN1CCN(c2ncccn2)CC1 [BUSPIRONE] | Compound NOT metabolized
24 | Cc1ccc(S(=O)(=O)NC(=O)NN2CCCCCC2)cc1 [TOLAZAMIDE] | Compound NOT metabolized

conditions: bifidobacterium adolescentis, 12 h, 2 µM
Description: The drug is tested on Bifidobacterium adolescentis strain: ATCC 15703 for biotransformation. The drug concentrations were measured before and after a 12-h incubation by liquid-chromatography-coupled mass spectrometry (LC–MS)

Row | Structure (SMILES) | Bacterial Biotransformation
25 | c1ccc2[nH]c(-c3cscn3)nc2c1 [THIABENDAZOLE] | Compound NOT metabolized
26 | CCOc1ccccc1OCCN[C@H](C)Cc1ccc(OC)c(S(N)(=O)=O)c1.Cl [TAMSULOSIN HYDROCHLORIDE] | Compound NOT metabolized
27 | CN[C@H]1CC[C@@H](c2ccc(Cl)c(Cl)c2)c2ccccc21 [SERTRALINE] | Compound NOT metabolized
28 | COc1cc(C(=O)NCc2ccc(OCCN(C)C)cc2)cc(OC)c1OC [TRIMETHOBENZAMIDE] | Compound NOT metabolized
29 | NC(CO)(CO)CO.O=C(c1ccccc1)c1ccc2n1CCC2C(=O)O (stereo not drawn) [KETOROLAC TROMETHAMINE] | Compound NOT metabolized
30 | CC(CN1c2ccccc2Sc2ccccc21)N(C)C (stereo not drawn) [PROMETHAZINE] | Compound NOT metabolized
31 | CCOc1ccc(NC(C)=O)cc1 [PHENACETIN] | Compound NOT metabolized
32 | Cc1cn([C@H]2C[C@H](N=[N+]=[N-])[C@@H](CO)O2)c(=O)[nH]c1=O [ZIDOVUDINE] | Compound NOT metabolized
33 | O=C1N=C([O-])NC1(c1ccccc1)c1ccccc1.[Na+] [PHENYTOIN SODIUM] | Compound NOT metabolized
34 | CC(O)(CS(=O)(=O)c1ccc(F)cc1)C(=O)Nc1ccc(C#N)c(C(F)(F)F)c1 (stereo not drawn) [BICALUTAMIDE] | Compound NOT metabolized
35 | O=C1CC2(CCCC2)CC(=O)N1CCCCN1CCN(c2ncccn2)CC1 [BUSPIRONE] | Compound NOT metabolized
36 | Cc1ccc(S(=O)(=O)NC(=O)NN2CCCCCC2)cc1 [TOLAZAMIDE] | Compound NOT metabolized

experiment: The drug is tested on Eggerthella lenta strain: ATCC25559 for biotransformation. The drug concentrations were measured before and after a 12-h incubation by liquid-chromatography-coupled mass spectrometry (LC–MS); conditions: 2 µM

Row | Structure (SMILES) | Bacterial Biotransformation
37 | c1ccc2[nH]c(-c3cscn3)nc2c1 [THIABENDAZOLE] | Compound NOT metabolized
38 | CCOc1ccccc1OCCN[C@H](C)Cc1ccc(OC)c(S(N)(=O)=O)c1.Cl [TAMSULOSIN HYDROCHLORIDE] | Compound NOT metabolized
39 | CN[C@H]1CC[C@@H](c2ccc(Cl)c(Cl)c2)c2ccccc21 [SERTRALINE] | Compound NOT metabolized
40 | Cc1cn([C@H]2C[C@H](N=[N+]=[N-])[C@@H](CO)O2)c(=O)[nH]c1=O [ZIDOVUDINE] | Compound NOT metabolized

conditions: bacteroides fragilis, 12 h, 2 µM
Description: The drug is tested on Bacteroides fragilis strain: 3397 (T10) for biotransformation. The drug concentrations were measured before and after a 12-h incubation by liquid-chromatography-coupled mass spectrometry (LC–MS)

Row | Structure (SMILES) | Bacterial Biotransformation
41 | c1ccc2[nH]c(-c3cscn3)nc2c1 [THIABENDAZOLE] | Compound NOT metabolized
42 | CCOc1ccccc1OCCN[C@H](C)Cc1ccc(OC)c(S(N)(=O)=O)c1.Cl [TAMSULOSIN HYDROCHLORIDE] | Compound NOT metabolized
43 | C[C@@H](CO)NC(=O)[C@@H]1C=C2c3cccc4[nH]cc(c34)C[C@H]2N(C)C1.O=C(O)/C=C\C(=O)O [ERGONOVINE MALEATE] | Compound metabolized
44 | CN[C@H]1CC[C@@H](c2ccc(Cl)c(Cl)c2)c2ccccc21 [SERTRALINE] | Compound NOT metabolized
45 | COc1cc(C(=O)NCc2ccc(OCCN(C)C)cc2)cc(OC)c1OC [TRIMETHOBENZAMIDE] | Compound NOT metabolized
46 | CC(CN1c2ccccc2Sc2ccccc21)N(C)C (stereo not drawn) [PROMETHAZINE] | Compound NOT metabolized
47 | CCOc1ccc(NC(C)=O)cc1 [PHENACETIN] | Compound NOT metabolized
48 | Cc1cn([C@H]2C[C@H](N=[N+]=[N-])[C@@H](CO)O2)c(=O)[nH]c1=O [ZIDOVUDINE] | Compound metabolized
49 | CC(O)(CS(=O)(=O)c1ccc(F)cc1)C(=O)Nc1ccc(C#N)c(C(F)(F)F)c1 (stereo not drawn) [BICALUTAMIDE] | Compound NOT metabolized
50 | O=C1CC2(CCCC2)CC(=O)N1CCCCN1CCN(c2ncccn2)CC1 [BUSPIRONE] | Compound NOT metabolized
51 | Cc1ccc(S(=O)(=O)NC(=O)NN2CCCCCC2)cc1 [TOLAZAMIDE] | Compound metabolized

experiment: The drug is tested on Anaerotruncus colihominis strain: DSM17241 for biotransformation. The drug concentrations were measured before and after a 12-h incubation by liquid-chromatography-coupled mass spectrometry (LC–MS); conditions: 2 µM

Row | Structure (SMILES) | Bacterial Biotransformation
52 | c1ccc2[nH]c(-c3cscn3)nc2c1 [THIABENDAZOLE] | Compound NOT metabolized
53 | CCOc1ccccc1OCCN[C@H](C)Cc1ccc(OC)c(S(N)(=O)=O)c1.Cl [TAMSULOSIN HYDROCHLORIDE] | Compound NOT metabolized
54 | C[C@@H](CO)NC(=O)[C@@H]1C=C2c3cccc4[nH]cc(c34)C[C@H]2N(C)C1.O=C(O)/C=C\C(=O)O [ERGONOVINE MALEATE] | Compound metabolized
55 | CN[C@H]1CC[C@@H](c2ccc(Cl)c(Cl)c2)c2ccccc21 [SERTRALINE] | Compound NOT metabolized
56 | COc1cc(C(=O)NCc2ccc(OCCN(C)C)cc2)cc(OC)c1OC [TRIMETHOBENZAMIDE] | Compound NOT metabolized
57 | NC(CO)(CO)CO.O=C(c1ccccc1)c1ccc2n1CCC2C(=O)O (stereo not drawn) [KETOROLAC TROMETHAMINE] | Compound NOT metabolized
58 | CC(CN1c2ccccc2Sc2ccccc21)N(C)C (stereo not drawn) [PROMETHAZINE] | Compound NOT metabolized
59 | CCOc1ccc(NC(C)=O)cc1 [PHENACETIN] | Compound NOT metabolized
60 | O=C1N=C([O-])NC1(c1ccccc1)c1ccccc1.[Na+] [PHENYTOIN SODIUM] | Compound NOT metabolized
61 | CC(O)(CS(=O)(=O)c1ccc(F)cc1)C(=O)Nc1ccc(C#N)c(C(F)(F)F)c1 (stereo not drawn) [BICALUTAMIDE] | Compound NOT metabolized
62 | O=C1CC2(CCCC2)CC(=O)N1CCCCN1CCN(c2ncccn2)CC1 [BUSPIRONE] | Compound NOT metabolized
63 | Cc1ccc(S(=O)(=O)NC(=O)NN2CCCCCC2)cc1 [TOLAZAMIDE] | Compound NOT metabolized
